Measurements reported in PubChem BioAssay (NCI).
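GI50 marks 50% less growth. TGI is the concentration that stops growth completely.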

Assays:
Assay in all cases: NCI-60 cell line screen, 384-well format
[1] = tested on: NCI-H522 lung
[2] = tested on: NCI-H322M lung
[3] = tested on: HCC-2998 colon
[4] = tested on: ACHN renal
[5] = tested on: HS 578T breast
[6] = tested on: SNB-75 CNS
[7] = tested on: EKVX NSCLC
[8] = tested on: NCI/ADR-RES ovarian
[9] = tested on: HL-60(TB) leukemia
[10] = tested on: UACC-62 melanoma
[11] = tested on: 786-0 renal
[12] = tested on: NCI-H23 lung
[13] = tested on: LOX IMVI melanoma
[14] = tested on: MDA-MB-468 breast
[15] = tested on: TK-10 renal
[16] = tested on: M14 melanoma
[17] = tested on: CAKI-1 renal
[18] = tested on: A549 NSCLC
[19] = tested on: SK-MEL-5 melanoma
[20] = tested on: SNB-19 CNS
[21] = tested on: MALME-3M melanoma
[22] = tested on: SK-MEL-28 melanoma
[23] = tested on: HOP-92 NSCLC
[24] = tested on: MOLT-4 leukemia
[25] = tested on: T-47D breast
[26] = tested on: MDA-MB-435 melanoma
[27] = tested on: SN12C renal
[28] = tested on: K-562 leukemia
[29] = tested on: HT29 colon
[30] = tested on: SW-620 colon
[31] = tested on: NCI-H460 NSCLC
[32] = tested on: KM12 colon
[33] = tested on: SF-268 CNS
[34] = tested on: HCT-116 colon
[35] = tested on: OVCAR-4 ovarian
[36] = tested on: MCF7 breast
[37] = tested on: RPMI-8226 leukemia
[38] = tested on: SK-OV-3 ovarian
[39] = tested on: U251 glioblastoma
[40] = tested on: OVCAR-3 ovarian
[41] = tested on: OVCAR-8 ovarian
[42] = tested on: HOP-62 NSCLC
[43] = tested on: RXF 393 renal
[44] = tested on: OVCAR-5 ovarian
[45] = tested on: PC-3 prostate
[46] = tested on: BT-549 breast
[47] = tested on: SF-539 CNS
[48] = tested on: SF-295 CNS
[49] = tested on: IGROV1 ovarian
[50] = tested on: UACC-257 melanoma
[51] = tested on: UO-31 renal
[52] = tested on: A498 renal
[53] = tested on: DU-145 prostate
[54] = tested on: HCT-15 colon
[55] = tested on: NCI-H226 lung
[56] = tested on: MDA-MB-231 breast

Work on O=C(Nc1cccc(Cl)c1)Nc1ncc(CCNc2ncnc3ccsc23)s1 yielded a GI50 [1] of 0.356 µM, a TGI [1] of 12.1 µM and a GI50 [2] of 6.64 µM. The TGI [2] was 19.6 µM, the GI50 [3] was 10.3 µM and the TGI [3] was 22 µM. It also gave a GI50 [4] of 1.52 µM, a TGI [4] of 17.3 µM and a GI50 [5] of 0.104 µM. It also gave a TGI [5] of 6.01 µM, a GI50 [6] of 4.06 µM and a TGI [6] of 17 µM. It also gave a GI50 [7] of 1.68 µM, a TGI [7] of 16.1 µM and a GI50 [8] of 2.44 µM. For the same compound, the TGI [8] was 11 µM, the GI50 [9] was under 0.01 µM and the TGI [9] was 3.63 µM. It also gave a GI50 [10] of 1 µM, a TGI [10] of 16 µM and a GI50 [11] of 1.97 µM. The TGI [11] was 11.4 µM, the GI50 [12] was 2.59 µM and the TGI [12] was 16 µM. For the same compound, the GI50 [13] was 1.25 µM, the TGI [13] was 13.8 µM and the GI50 [14] was 0.0283 µM. The TGI [14] was 0.242 µM, the GI50 [15] was 9.81 µM and the TGI [15] was 21.6 µM. For the same compound, the GI50 [16] was 1.79 µM, the TGI [16] was 14.8 µM and the GI50 [17] was 1.15 µM. For the same compound, the TGI [17] was 14.1 µM, the GI50 [18] was 0.121 µM and the TGI [18] was 15.4 µM. The GI50 [19] was 1.08 µM, the TGI [19] was 2.53 µM and the GI50 [20] was 11.7 µM. The TGI [20] was 24 µM, the GI50 [21] was 6.41 µM and the TGI [21] was 19.5 µM. It also gave a GI50 [22] of 10.4 µM, a TGI [22] of 22.2 µM and a GI50 [23] of 3.53 µM. For the same compound, the TGI [23] was 18.4 µM, the GI50 [24] was under 0.01 µM and the GI50 [25] was 0.228 µM. It also gave a TGI [25] of 2.36 µM, a GI50 [26] of 10 µM and a TGI [26] of 21.6 µM. The GI50 [27] was 3.01 µM, the TGI [27] was 18.2 µM and the GI50 [28] was 1.34 µM. It also gave a TGI [28] of 14.1 µM, a GI50 [29] of 2.42 µM and a TGI [29] of 14.5 µM. For the same compound, the GI50 [30] was 14.6 µM, the TGI [30] was 27.8 µM and the GI50 [31] was 0.0433 µM. The TGI [31] was 10.6 µM, the GI50 [32] was 0.118 µM and the TGI [32] was 13.2 µM. For the same compound, the GI50 [33] was under 0.01 µM, the TGI [33] was 0.781 µM and the GI50 [34] was 0.754 µM. The TGI [34] was 14.5 µM, the GI50 [35] was 9.02 µM and the TGI [35] was 21.3 µM. It also gave a GI50 [36] of 1.49 µM, a TGI [36] of 13 µM and a GI50 [37] of 0.308 µM. It also gave a TGI [37] of 11.5 µM, a GI50 [38] of 5.02 µM and a TGI [38] of 19 µM. It also gave a GI50 [39] of 7.52 µM, a TGI [39] of 20.7 µM and a GI50 [40] of 0.174 µM. It also gave a TGI [40] of 15 µM, a GI50 [41] of 2.2 µM and a TGI [41] of 12 µM. The GI50 [42] was 0.356 µM, the TGI [42] was 11 µM and the GI50 [43] was 0.0169 µM. It also gave a TGI [43] of 2.55 µM, a GI50 [44] of 8.83 µM and a TGI [44] of 21.2 µM. The GI50 [45] was 3.15 µM, the TGI [45] was 13.2 µM and the GI50 [46] was 1.07 µM. The TGI [46] was 11.4 µM, the GI50 [47] was 0.306 µM and the TGI [47] was 14.7 µM. The GI50 [48] was 2.17 µM, the TGI [48] was 18.1 µM and the GI50 [49] was 3.39 µM. It also gave a TGI [49] of 16 µM, a GI50 [50] of 4.81 µM and a TGI [50] of 18.3 µM. The GI50 [51] was 3.5 µM, the TGI [51] was 19.7 µM and the GI50 [52] was 0.839 µM. For the same compound, the TGI [52] was 18.5 µM, the GI50 [53] was 4.52 µM and the TGI [53] was 18.1 µM. For the same compound, the GI50 [54] was 1.47 µM, the TGI [54] was 15.6 µM and the GI50 [55] was 2.94 µM. For the same compound, the TGI [55] was 16.3 µM, the GI50 [56] was 8.07 µM and the TGI [56] was 20.8 µM.
